No end group written: not given here.
Legend:
[1] = test system: neoantigen-specific T cells; experiment: cytokine production by neoantigen-specific T cells (MILLIPLEX / IFN-γ ELISA); format: cell-based, human; details: upon antigen stimulation, supernatants at 24 h
Description: For analysis of cytokines secreted by T cells upon SCT activation, cultures were activated 14 d after SCT or AT-SCT stimulation, T cells were restimulated with SCT at 1:1 ratio in RPMI 1640 supplemented with 5% pooled human sera (RPMI-5), supernatants were collected 24 h after activation and characterized using a MILLIPLEX® cytokine kit (Millipore, Billerica, Mass.), per the manufacturer's instructions.
(§1) For functional characterization, neoantigen-specific T cell lines were generated using autologous mDC and antigen loaded artificial antigen presenting cells at a ratio of 1:1 as previously described (Carreno, B. M., et al., J. Immunol., 188, 5839-5849, 2012). […] For production of cytokines, neoantigen-specific T cells were restimulated using artificial antigen presenting cells in the presence or absence of peptide, supernatants collected at 24 h and cytokine produced determined using MILLIPLEX® MAP Human Cytokine Panel I (EMD Millipore).
Substantial evidence supports the hypothesis that Th2/Tc2 immune polarization correlates with worse disease outcome in patients with cancer (Fridman, W. H., et al., Nat. Rev. Cancer, 12, 298-306, 2012). […] Thus, we determined production of cytokines upon antigen stimulation as described above. […] Cytokine production was determined using a multi-plex bead assay. […]

[2] = test system: peptide-pulsed T2 (HLA-A*02:01) cells; experiment: 4 h 51Cr-release assay with peptide titrations on T2 cells (peptide avidity, AAS vs WT recognition); format: cell-based, human; details: peptide presented on T2 cells
Description: ^51Cr release assays to measure specific lysis have been described previously (Carreno, B. M., et al., Immunol. Cell Biol., 87: 167-177, 2009; Linette, G. P. et al., Clin. Cancer Res. 11, 7692-7699, 2005). Melanoma cell lines DM6 (HLAA2+ gp100+) and A375 (HLA-A2+gp100−) were labeled with 25 μCi ^51Cr for 1 hour, washed, and tested as targets in a standard 4-hour assay. Effectors were generated using PBMCs collected after D3 and cultured for 12 days in the presence of peptide (40 μg/ml) and IL2 (50 U/ml every other day). Vaccine-induced antigen-specific T cells were characterized using HLAA*0201/peptide dextramers (Immudex). To determine the avidity (effective concentration at 50% maximal lysis) of vaccine-induced T cells for antigen, T2 cells were pulsed with titrated G209-2M or G280-9V peptide concentrations for 1 hour in serum-free media followed by 51Cr (25 μCi) labeling for 1 hour, washed twice, and tested using vaccine-induced gp100-specific T cells in a standard 4-hour assay.
as §1
To examine cross-reactivity, T2 cells were pulsed with MUT or WT peptide at the indicated concentrations, labeled with ^51CR-chromium and used as target in a cytotoxic assay. Vaccine-induced T cells were incubated with peptide-pulsed T2 cells and ^51Cr-Chromium release measured at 4 h. […]
FIG. 34 illustrates that neoantigen-specific T cells recognition of AAS (closed circles) and WT (open circles) peptides was determined in a standard 4 h ^51Cr-release assay using peptide titrations on T2 (HLAA*02:01) cells. […]

| Sequence | cytokine phenotype of neoantigen-specific T cells (IFN-γ relative to IL-4, IL-5, IL-13) [1] | T cell discrimination between mutated (AAS) and wild-type peptide ([2]; listed as OR8B3) | T cell discrimination between mutated (AAS) and wild-type peptide ([2]; listed as OR8B3 T190I) | T cell discrimination between mutated (AAS) and wild-type peptide [2] |
| --- | --- | --- | --- | --- |
| CLNEYHLFL | mixed phenotype |  |  |  |
| QLSCISTYV |  | cannot discriminate between MUT and WT sequences | could not discriminate between AAS and wild-type (WT) peptide |  |
| KLMNIQQKL | Tc1 phenotype |  |  | can discriminate between peptide sequence containing single an changes |

Reference: patent US20170202939A1, “PERSONALIZED CANCER VACCINES AND METHODS THEREFOR” (Washington University, priority 2014, published 2017)
